Data: US8633226B2, “Piperidinyl derivative as a modulator of chemokine receptor activity” (Bristol-Myers Squibb Company, priority 2008, dated 2014)

Columns and labels:
[1] = biological target: human cardiac sodium channel SCN5A (Homo sapiens (Human), UniProt Q14524); test: Sodium channel whole-cell patch-clamp assay; format: cell-based; details: HEK-293 cells expressing human cardiac sodium channel SCN5A, pH 7.4, protein-free buffer, read-out: Na, % inh
Protocol: Whole-cell patch-clamp was used to directly measure inward sodium currents in HEK-293 cells expressing the human cardiac sodium channel, SCN5A. After reach steady-state effect in the presence of drug, rate-dependence was assessed by stimulation at frequencies of 1 Hz and 4 Hz. Experiments were carried out using an aqueous buffer at pH 7.4 and at room temperature. There is no protein in the buffer and drug concentrations reported are nominal free drug levels. Test article was evaluated up to 10 μM (protein-free buffer). Rate-dependence of inhibition was assessed by stimulation at frequencies of 1 Hz and 4 Hz.

[2] = biological target: human cardiac L-type Ca channel (α1C) and its β subunit (Homo sapiens (Human), UniProt Q13936); test: L-type calcium channel whole-cell patch-clamp assay; format: cell-based; details: 30 μM, HEK-293 cells, protein-free buffer
Protocol: In addition to the potential for interaction with the L-type calcium channel, whole-cell patch-clamp was used to directly measure inward calcium currents in HEK-293 cells stably expressing the cloned human cardiac L-type Ca channel (α1C) and its β subunit. Effects of compounds were calculated by measuring inhibition of peak current. Experiments were carried out using an aqueous buffer at pH 7.4 and at room temperature. There is no protein in the buffer and drug concentrations reported are nominal free drug levels.

Chain of human cardiac sodium channel SCN5A (Q14524 whole entry): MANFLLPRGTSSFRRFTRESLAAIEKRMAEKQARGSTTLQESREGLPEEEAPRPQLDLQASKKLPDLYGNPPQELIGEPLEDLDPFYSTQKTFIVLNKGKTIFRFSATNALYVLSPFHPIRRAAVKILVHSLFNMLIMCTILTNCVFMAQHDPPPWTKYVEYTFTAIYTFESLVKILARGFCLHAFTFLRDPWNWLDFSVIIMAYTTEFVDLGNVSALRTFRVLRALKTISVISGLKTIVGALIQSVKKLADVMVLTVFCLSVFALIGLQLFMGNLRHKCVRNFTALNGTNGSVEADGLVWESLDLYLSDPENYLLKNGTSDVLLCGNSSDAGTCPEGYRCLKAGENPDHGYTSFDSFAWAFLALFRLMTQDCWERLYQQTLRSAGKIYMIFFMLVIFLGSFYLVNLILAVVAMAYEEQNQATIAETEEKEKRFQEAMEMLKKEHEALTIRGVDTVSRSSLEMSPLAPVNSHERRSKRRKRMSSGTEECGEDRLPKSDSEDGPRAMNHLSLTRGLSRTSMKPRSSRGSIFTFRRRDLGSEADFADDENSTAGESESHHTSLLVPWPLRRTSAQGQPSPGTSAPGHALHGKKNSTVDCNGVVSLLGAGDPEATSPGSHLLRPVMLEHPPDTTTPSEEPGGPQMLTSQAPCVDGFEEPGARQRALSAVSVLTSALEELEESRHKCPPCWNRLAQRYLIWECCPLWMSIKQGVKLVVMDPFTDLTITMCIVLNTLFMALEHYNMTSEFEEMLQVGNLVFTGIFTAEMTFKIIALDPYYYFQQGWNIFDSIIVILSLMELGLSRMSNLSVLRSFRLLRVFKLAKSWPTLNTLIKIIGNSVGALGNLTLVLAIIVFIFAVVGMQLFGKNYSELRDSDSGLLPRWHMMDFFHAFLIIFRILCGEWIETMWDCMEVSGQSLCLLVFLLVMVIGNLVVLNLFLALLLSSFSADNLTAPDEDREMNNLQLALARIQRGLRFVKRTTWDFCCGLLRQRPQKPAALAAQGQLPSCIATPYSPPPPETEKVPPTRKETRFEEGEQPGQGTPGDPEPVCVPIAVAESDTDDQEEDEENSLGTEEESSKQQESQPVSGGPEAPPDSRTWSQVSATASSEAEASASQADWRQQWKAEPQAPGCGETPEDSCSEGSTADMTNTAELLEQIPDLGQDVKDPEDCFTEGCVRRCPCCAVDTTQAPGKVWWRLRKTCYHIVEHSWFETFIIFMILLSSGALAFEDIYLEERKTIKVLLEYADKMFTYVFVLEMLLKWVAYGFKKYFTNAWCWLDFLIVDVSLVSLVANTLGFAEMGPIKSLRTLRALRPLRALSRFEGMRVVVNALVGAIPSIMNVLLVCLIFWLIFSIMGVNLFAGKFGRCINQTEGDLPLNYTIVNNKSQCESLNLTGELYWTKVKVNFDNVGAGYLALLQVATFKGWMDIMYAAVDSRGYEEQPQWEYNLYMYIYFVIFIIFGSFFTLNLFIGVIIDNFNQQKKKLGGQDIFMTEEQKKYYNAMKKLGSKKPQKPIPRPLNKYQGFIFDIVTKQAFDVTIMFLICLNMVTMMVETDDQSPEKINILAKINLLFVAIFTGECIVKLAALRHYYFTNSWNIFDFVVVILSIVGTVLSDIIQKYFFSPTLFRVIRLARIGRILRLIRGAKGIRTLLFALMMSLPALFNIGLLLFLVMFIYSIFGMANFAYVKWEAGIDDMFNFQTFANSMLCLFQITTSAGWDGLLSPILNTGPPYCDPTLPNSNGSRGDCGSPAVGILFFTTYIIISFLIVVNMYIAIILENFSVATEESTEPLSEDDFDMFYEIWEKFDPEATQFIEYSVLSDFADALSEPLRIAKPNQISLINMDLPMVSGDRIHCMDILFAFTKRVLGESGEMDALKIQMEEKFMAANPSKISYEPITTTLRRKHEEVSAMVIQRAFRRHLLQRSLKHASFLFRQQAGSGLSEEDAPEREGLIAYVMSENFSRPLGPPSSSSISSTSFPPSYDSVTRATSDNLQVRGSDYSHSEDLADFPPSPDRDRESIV
Chain of human cardiac L-type Ca channel (α1C) and its β subunit (Q13936 whole entry): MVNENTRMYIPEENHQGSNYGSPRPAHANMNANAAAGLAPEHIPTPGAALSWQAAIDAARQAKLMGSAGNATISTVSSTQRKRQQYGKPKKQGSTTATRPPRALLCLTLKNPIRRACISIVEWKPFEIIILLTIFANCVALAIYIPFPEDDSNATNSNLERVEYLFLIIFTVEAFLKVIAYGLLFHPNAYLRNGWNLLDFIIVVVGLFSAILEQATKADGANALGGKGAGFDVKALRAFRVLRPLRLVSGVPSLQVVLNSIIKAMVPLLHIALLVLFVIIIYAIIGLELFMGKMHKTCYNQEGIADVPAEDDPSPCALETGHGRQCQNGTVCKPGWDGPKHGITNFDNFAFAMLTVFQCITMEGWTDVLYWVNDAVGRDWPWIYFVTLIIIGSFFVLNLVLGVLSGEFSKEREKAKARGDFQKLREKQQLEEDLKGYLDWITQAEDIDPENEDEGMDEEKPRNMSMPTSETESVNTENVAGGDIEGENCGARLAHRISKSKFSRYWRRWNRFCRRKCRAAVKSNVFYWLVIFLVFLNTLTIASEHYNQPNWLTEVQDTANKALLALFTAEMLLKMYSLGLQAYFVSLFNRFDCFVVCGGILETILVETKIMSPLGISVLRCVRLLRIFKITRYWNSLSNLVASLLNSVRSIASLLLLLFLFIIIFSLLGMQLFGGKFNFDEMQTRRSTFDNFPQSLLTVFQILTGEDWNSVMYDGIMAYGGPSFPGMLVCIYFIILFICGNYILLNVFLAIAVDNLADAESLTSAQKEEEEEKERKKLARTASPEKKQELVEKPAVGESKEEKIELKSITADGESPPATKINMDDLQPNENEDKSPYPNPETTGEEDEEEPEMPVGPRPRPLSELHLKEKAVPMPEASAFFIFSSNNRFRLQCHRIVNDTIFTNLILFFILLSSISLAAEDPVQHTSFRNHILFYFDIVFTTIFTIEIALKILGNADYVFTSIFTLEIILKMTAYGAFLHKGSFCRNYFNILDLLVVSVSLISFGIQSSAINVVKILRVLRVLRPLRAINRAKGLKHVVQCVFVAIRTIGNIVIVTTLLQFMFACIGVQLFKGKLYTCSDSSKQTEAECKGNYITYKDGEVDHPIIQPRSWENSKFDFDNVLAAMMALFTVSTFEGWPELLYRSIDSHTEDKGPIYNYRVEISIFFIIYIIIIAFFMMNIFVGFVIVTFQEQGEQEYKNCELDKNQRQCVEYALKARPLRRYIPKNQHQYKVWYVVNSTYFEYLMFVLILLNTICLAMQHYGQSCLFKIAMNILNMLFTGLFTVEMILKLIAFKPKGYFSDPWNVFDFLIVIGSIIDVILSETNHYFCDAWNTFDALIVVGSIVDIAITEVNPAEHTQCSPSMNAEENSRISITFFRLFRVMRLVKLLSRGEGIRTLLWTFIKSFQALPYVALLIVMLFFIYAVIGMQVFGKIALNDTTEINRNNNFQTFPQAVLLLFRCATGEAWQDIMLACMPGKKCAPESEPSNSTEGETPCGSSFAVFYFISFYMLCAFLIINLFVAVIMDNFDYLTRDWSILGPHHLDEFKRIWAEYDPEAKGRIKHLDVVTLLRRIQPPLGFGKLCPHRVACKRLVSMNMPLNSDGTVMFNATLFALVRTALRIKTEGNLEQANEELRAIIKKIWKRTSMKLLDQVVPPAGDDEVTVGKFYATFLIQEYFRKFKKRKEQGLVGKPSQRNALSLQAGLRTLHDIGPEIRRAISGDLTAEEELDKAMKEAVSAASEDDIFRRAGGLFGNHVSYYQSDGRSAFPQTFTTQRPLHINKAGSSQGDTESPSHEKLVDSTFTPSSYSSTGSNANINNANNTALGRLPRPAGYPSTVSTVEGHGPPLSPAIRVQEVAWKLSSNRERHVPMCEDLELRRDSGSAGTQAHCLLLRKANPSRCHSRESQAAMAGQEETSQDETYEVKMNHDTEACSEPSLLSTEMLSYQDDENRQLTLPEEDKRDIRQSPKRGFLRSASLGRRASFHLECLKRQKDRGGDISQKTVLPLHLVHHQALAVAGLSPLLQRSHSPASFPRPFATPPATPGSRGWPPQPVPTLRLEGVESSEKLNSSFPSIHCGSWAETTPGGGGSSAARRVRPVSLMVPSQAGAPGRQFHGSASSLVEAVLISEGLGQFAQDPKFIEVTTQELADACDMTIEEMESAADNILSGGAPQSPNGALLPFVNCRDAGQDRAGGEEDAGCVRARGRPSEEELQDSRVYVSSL
Chain of human cardiac L-type Ca channel (α1C) and its β subunit (Q08289 whole entry partner): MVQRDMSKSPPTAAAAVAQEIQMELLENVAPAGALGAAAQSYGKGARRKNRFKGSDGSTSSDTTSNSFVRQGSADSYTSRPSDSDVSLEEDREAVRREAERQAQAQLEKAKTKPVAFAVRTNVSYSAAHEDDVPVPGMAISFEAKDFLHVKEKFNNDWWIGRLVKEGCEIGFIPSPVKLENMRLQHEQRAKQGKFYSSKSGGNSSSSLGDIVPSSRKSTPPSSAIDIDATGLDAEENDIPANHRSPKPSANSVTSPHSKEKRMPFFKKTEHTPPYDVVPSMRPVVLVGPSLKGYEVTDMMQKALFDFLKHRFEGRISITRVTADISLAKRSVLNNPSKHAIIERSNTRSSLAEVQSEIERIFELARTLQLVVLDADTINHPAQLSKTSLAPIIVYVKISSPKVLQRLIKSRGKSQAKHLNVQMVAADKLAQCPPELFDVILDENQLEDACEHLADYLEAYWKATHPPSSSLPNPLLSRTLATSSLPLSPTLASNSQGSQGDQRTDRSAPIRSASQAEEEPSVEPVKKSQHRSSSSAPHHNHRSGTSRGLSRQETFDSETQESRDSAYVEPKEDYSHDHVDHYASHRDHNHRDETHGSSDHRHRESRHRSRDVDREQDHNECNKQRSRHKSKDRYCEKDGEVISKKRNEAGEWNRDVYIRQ

In the case of `CC(C)[C@@H](NC(=O)NCC(C)(C)O)C(=O)N1CC[C@](O)(c2ccc(Cl)cc2)C(C)(C)C1` [Compound I], the inhibition at 10 µM [1] is reported as 12% and the “Ca, % inh” value [2] is reported as 29% @ 30 μM.
